These molecules were tested against Dual specificity protein phosphatase 3 (Homo sapiens) (UniProt P51452) (assay: PubChem AID 2004). Conditions: recombinant VHR phosphatase, colorimetric substrate read-out.
Chain of Dual specificity protein phosphatase 3 (Homo sapiens) (P51452 whole entry, looked up): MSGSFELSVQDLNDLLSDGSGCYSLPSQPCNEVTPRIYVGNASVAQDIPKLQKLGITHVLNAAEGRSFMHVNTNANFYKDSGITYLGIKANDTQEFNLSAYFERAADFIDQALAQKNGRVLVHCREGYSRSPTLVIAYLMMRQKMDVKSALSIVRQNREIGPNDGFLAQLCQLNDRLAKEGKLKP

SMILES	Ki [µM]
O=C1NC(=S)N(c2ccc(F)cc2)C(=O)/C1=C/c1ccc(Br)o1	12.1
O=C1/C(=C/C=C/c2ccccc2)SC(=S)N1CCS(=O)(=O)O	0.809
COc1ccc(N2C(=O)/C(=C/c3ccc(I)o3)C(=O)NC2=S)cc1	4.44
Cc1ccc(C)n1-c1ccc(SCC(=O)O)cc1	2.09
O=C(/C=C/c1ccc(-c2ccccc2[N+](=O)[O-])o1)Nc1ccc(-c2nc3ccccc3o2)cc1	1.76
S=C(Nc1ccc2c(c1)oc1ccccc12)Nc1cccc2ccccc12	2.94
O=C(O)c1cccc(-c2ccc(/C=N/Nc3ccc([N+](=O)[O-])cn3)o2)c1	13.8
O=C(O)C(Cc1ccccc1)N1C(=O)/C(=C/C=C/c2ccccc2)SC1=S (stereo not drawn)	2.01
CCOC(=O)c1[nH]nc2c1C(=O)N(c1ccc(Br)cc1)C2=O	2.64
O=C1NC(=O)N(c2cccc(Br)c2)C(=O)/C1=C/c1ccc(-c2ccc(C(=O)O)cc2)o1	16.2
O=c1[nH]c(=S)n(-c2cccc(Cl)c2)c(O)c1/C=C1/C=CC=N1	3.49
O=C(/C=C/c1ccco1)/C=C/c1ccc(-c2ccc(Cl)c(Cl)c2)o1	15.9
COc1ccc(OC)c2c1C(=O)c1ccccc1C2=O	3.07
C=CCN1C(=O)/C(=C\C=C\c2ccco2)C(=O)NC1=S	15.8
O=C1c2cccc3c4ccccc4n(c23)C(=O)C1(O)O	13.8
Cc1ccc(C)n1-c1ccc(C(=O)O)c(O)c1	12.8
O=C1C(Cl)=C/C(=N\S(=O)(=O)c2ccc(Cl)cc2)C(Cl)=C1Cl	13.4
CC1=C(C#N)c2nc(N)c(C#N)c(C)c2/C1=C/c1ccc(-c2ccc(C(=O)O)c(Cl)c2)o1	3.87

Source: PubChem BioAssay AID2004 (Sanford-Burnham Center for Chemical Genomics, 2009)
